Data from patent US5559025A (priority 1991, dated 1996).
“Also recorded” adds a separate entry of the source. Read-outs that look alike come from different tables or passages of the source. *1 amine or outer side, *2 acyl side, *3 side chain or, on linkers, in order; H or OH if unused. Where a SMILES comes first, the peptide text is derived from it. CO = O=C([*:1])[*:2]

How the values were obtained:
Format in all cases: biochemical
HRV2 2A proteinase [1] = biological target: T1, HRV2 2A proteinase (Human rhinovirus 2, UniProt P04936); conditions: for cleavability by HRV2 2A (in words): trans-cleavage assay, 34° C., up to 32 minutes
HRV2 2A proteinase [2] = biological target: T1, HRV2 2A proteinase
Target sequence in this assay (P04936 851-992 limits assumed): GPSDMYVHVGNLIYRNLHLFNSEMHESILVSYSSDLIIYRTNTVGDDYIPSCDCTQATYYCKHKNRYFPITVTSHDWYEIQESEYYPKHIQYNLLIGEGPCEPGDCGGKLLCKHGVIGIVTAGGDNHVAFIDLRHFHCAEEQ

HRV2 2A proteinase [3] = biological target: T1, HRV2 2A proteinase; experiment: Km determination with peptide substrate P89 (trans-cleavage assays); conditions: peptide substrate P89, 15° C., 50 to 500 μmol/l, repeated three times with various 2A preparations
Experimental: […] For competitive or inhibitory studies, an additional 5 μl of solution containing the substance for competition or inhibition are added. The reaction is stopped by adding an equal volume of a 0.5M HClO4 solution. The samples are cooled to 0° C. for 10 minutes or frozen overnight at -20° C. After centrifugation (Eppendorf centrifuge, 10 min, 4° C.) an equal volume of a 1.4M K2 HPO4 solution is added. The samples are left to stand for 5 minutes at ambient temperature and the precipitate is separated off by centrifuging. […] The reaction products are detected by UV absorption at 214 and 280 nm. The course of the reaction over a period of time (% cleavage of the peptide substrate) is determined by "reverse phase" HPLC. The area of the newly formed peptide peak corresponding to the quantity of the carboxy- and amino terminal cleavage products is determined for each case and compared with the area of the uncleaved P89. The cleavage products are determined either by comigration with the corresponding reference peptides and amino acid analysis or by protein sequencing (Hunkapillar and Hood, 1983, loc. cit.). […]
In order to identify the Km value for the Wild type substrate P89 a set of trans-cleavage assays are carried out at 15° C. with various P89 substrate concentrations (between 50 and 500 μmol/l). […] For each substrate concentration the reaction speed was determined (% cleavage of P89). […]

HRV2 2A proteinase [4] = biological target: T1, HRV2 2A proteinase; experiment: Competition of non-cleavable or slightly cleavable peptides with P89 cleaving
[5] = inhibitor added before start of reaction, repeated three times

## Ac-TRPIITTAG-NH2 [WTN9]
HRV2 2A proteinase [1]
  % cleavage compared with P89: 10%
  cleavability by HRV2 2A (in words): sufficient for a cleavage

## CC(C)CC(NC(=O)C1OC1C(=O)O)C(=O)NCCCCNC(=N)N (stereo not drawn) [E-64]
HRV2 2A proteinase [2]; [5]
  effect on the activity of 2A relative to peptide P89: no effect

## O=c1oc(Cl)c(Cl)c2ccccc12 [3,4-dichloroisocumarin]
HRV2 2A proteinase [2]; [5]
  effect on the activity of 2A relative to peptide P89: no activity

## acetyl-TRPIITTA*GPSDMYVH-NH2 (Ac-TRPIITTAGPSDMYVH-NH2; not fully specified (residue 8); printed as acetyl-TRPIITTA*GPSDMYVH-NH2) [P89, reference compound]
HRV2 2A proteinase [1]
  cleavability by HRV2 2A (in words): specifically cleaved
HRV2 2A proteinase [3]
  Km: 540 µM

## Ac-IITTAGPSDM-NH2 [P145, IITTAGPSDM]
HRV2 2A proteinase [1]
  cleavability by HRV2 2A (in words): cannot be cleaved
HRV2 2A proteinase [4]
  ability to act as competitor/inhibitor of P89 cleaving: became competitive; also recorded: behaved competitively; also recorded: competitive inhibitors

## Ac-ITTAGPSD-NH2 [WTD8, ITTAGPSD]
HRV2 2A proteinase [1]
  cleavability by HRV2 2A (in words): cannot be cleaved
HRV2 2A proteinase [4]
  ability to act as competitor/inhibitor of P89 cleaving: became competitive; also recorded: behaved competitively; also recorded: competitive inhibitors

## chymostatin
HRV2 2A proteinase [2]; [5]
  effect on the activity of 2A relative to peptide P89: highly effective

## Cc1ccc(S(=O)(=O)N[C@@H](Cc2ccccc2)C(=O)CCl)cc1 [TPCK, Tosylphenylalanylchloromethylketone]
HRV2 2A proteinase [2]; [5]
  effect on the activity of 2A relative to peptide P89: only effective at higher concentrations

## Ac-ITTAGPSDMYVH-NH2 [D]
HRV2 2A proteinase [1]
  cleavability by HRV2 2A (in words): fall in cleavability of one order of magnitude; also recorded: reduction in the cleavability by one order of magnitude

## NC(=O)CI [iodacetamide]
HRV2 2A proteinase [2]; [5]
  effect on the activity of 2A relative to peptide P89: strongly inhibit

## Cc1ccc(S(=O)(=O)N[C@@H](CCCCN)C(=O)CCl)cc1 [TLCK, Tosyllysylchloromethylketone]
HRV2 2A proteinase [2]; [5]
  effect on the activity of 2A relative to peptide P89: only effective at higher concentrations

## CC(C)[C@H](NC(=O)[C@H](CCCNC(=N)N)NC(=O)N[C@@H](Cc1ccccc1)C(=O)O)C(=O)N[C@H](C=O)CCCNC(=N)N [antipain] ({Phe-CO}-Arg-Val-Arg-aldehyde)
HRV2 2A proteinase [2]; [5]
  effect on the activity of 2A relative to peptide P89: highly effective

## TRPIITNAGPSDMYV [B8, Thr for Asn at position P2]
HRV2 2A proteinase [4]
  ability to act as competitor/inhibitor of P89 cleaving: became competitive; also recorded: behaved competitively

## TRPIITTNGPSDMYV [G5, Ala for Asn at position P1]
HRV2 2A proteinase [1]
  cleavability by HRV2 2A (in words): dramatically reduced cleavability
HRV2 2A proteinase [4]
  ability to act as competitor/inhibitor of P89 cleaving: became competitive; also recorded: behaved competitively

## TRPIITTPSDMYVH [AB2, deleted Wild type substrate, missing cleavage site]
HRV2 2A proteinase [1]
  cleavability by HRV2 2A (in words): No cleaving (nor any alternative) is observed; also recorded: No cleavage (nor any alternative cleavage) was observed; also recorded: cannot be cleaved
HRV2 2A proteinase [4]
  ability to act as competitor/inhibitor of P89 cleaving: became competitive; also recorded: behaved competitively; also recorded: competitive inhibitors

## O=C(O)CN(CCN(CC(=O)O)CC(=O)O)CC(=O)O [EDTA]
HRV2 2A proteinase [2]
  effect on the activity of 2A relative to peptide P89: a certain inhibiting effect at higher concentrations

## CC(C)C[C@H](NC(=O)N[C@H](C(=O)N[C@@H](CCC(N)=O)C(=O)N[C@@H](C)C=O)[C@@H]1CCNC(=N)N1)C(=O)O [elastatinal]
HRV2 2A proteinase [2]; [5]
  effect on the activity of 2A relative to peptide P89: highly effective

## O[C@H](CS)[C@H](O)CS (racemic) [DTT, Dithiothreitol]
HRV2 2A proteinase [2]; [5]
  effect on the activity of 2A relative to peptide P89: no effect

## CCN1C(=O)C=CC1=O [N-ethylmaleimide]
HRV2 2A proteinase [2]; [5]
  effect on the activity of 2A relative to peptide P89: strongly inhibit

## N=C(N)c1ccc(CS(=O)(=O)F)cc1 [APMSF, 4-(Amidinophenyl)methanesulphonylfluoride]
HRV2 2A proteinase [2]; [5]
  effect on the activity of 2A relative to peptide P89: no activity

## c1cnc2c(c1)ccc1cccnc12 [1,10-phenanthrolene]
HRV2 2A proteinase [2]; [5]
  effect on the activity of 2A relative to peptide P89: a certain inhibiting effect at higher concentrations

## N[C@@H](CS)C(=O)O [cysteine]
HRV2 2A proteinase [2]; [5]
  effect on the activity of 2A relative to peptide P89: no effect

## TRIITSAGPSDMYV [B4, Thr for Ser at position P2]
HRV2 2A proteinase [4]
  ability to act as competitor/inhibitor of P89 cleaving: became competitive; also recorded: behaved competitively

## CC(=O)N[C@@H](CC(C)C)C(=O)N[C@@H](CC(C)C)C(=O)N[C@H](C=O)CCCNC(=N)N [Leupeptine]
HRV2 2A proteinase [2]; [5]
  effect on the activity of 2A relative to peptide P89: ineffectiveness
